Laboratory results as given in patent publication US6887882B2, “Pharmaceutical compositions comprising chelidonine or derivatives thereof” (priority 2002, dated 2005).

What was measured:
hKv1.5 channel = target: T1, hKv1.5 channel (Homo sapiens, UniProt P22460); experiment: Voltage-dependent block of hKv1.5 channel currents expressed in Ltk-cells; assay type: cell-based; conditions: 10 μM
T1 construct: expressed in transfected cells; host or cells: mouse Ltk- cells (pMSVneo vector, G418 selection)
T1 sequence (P22460 whole entry): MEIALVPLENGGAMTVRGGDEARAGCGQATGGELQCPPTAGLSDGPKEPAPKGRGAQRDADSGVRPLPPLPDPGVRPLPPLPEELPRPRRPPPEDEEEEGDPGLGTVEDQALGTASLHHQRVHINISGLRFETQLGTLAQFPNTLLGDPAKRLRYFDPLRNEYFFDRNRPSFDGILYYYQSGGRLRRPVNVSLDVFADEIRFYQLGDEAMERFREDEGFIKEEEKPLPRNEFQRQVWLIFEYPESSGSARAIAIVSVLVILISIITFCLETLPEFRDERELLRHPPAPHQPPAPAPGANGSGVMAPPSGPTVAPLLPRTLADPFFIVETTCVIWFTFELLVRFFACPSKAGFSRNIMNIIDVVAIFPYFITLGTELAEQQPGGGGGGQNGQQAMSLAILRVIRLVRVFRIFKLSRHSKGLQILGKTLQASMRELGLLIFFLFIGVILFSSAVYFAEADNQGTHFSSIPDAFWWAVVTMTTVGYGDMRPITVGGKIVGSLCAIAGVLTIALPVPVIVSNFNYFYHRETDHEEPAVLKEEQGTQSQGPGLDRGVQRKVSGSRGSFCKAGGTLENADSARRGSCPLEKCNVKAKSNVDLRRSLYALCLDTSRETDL
Description: To quantify the voltage-dependent block of chelidonine (compound 1), the relative steady state current, Ichelidonine/Icontrol was plotted as a function of membrane potential (FIG. 2). The steady-state currents were obtained at the end stage of 250 ms depolarizing pulses, while increasing the membrane voltage by 10 mV from −80 to +60 mV. The dotted line denotes the activation curve of hKv1.5 channel current expressed in Ltk-cells.

[1] = test system: K+ channel current in human atrial myocytes; experiment: Effect on the K+ current in human atrial myocytes (whole cell patch clamp); assay type: cell-based
Experimental: Currents in human atrial myocytes and cell lines were recorded by using the whole cell configuration of the gigaohm-seal patch clamp techniques (Kwak, et al., Phosphorylation is required for alteration of Kv1.5 K^+ channel function by the Kvbeta 1.3 subunit. J Biol Chem 1999, 274: 25355-25361). First, electrical signals were amplified with a patch clamp amplifier (Axon Instruments, Axopatch-1D, Foster, USA). Currents were digitized by a signal converter (Digidata 1200, Axon Instruments) and stored on the hard disk of a computer. The micropipette with a resistance of 1˜2MΩ (Kimax-51, 1.5=14 1.8×10 mm) for current recording, was pulled out by a 2-stage pipette puller (Narishige, PP-83). The intracellular pipette-filling solution for whole cell mode contained 100 mM KCl, 10 mM HEPES, 5 mM K4BAPTA, 5 mM K2ATP and 1 mM MgCl2 (pH 7.2). The extracellular solution contained 130 mM NaCl, 4 mM KCl, 1.8 mM CaCl2, 1 mM MgCl2, 10 mM HEPES and 10 mM glucose (pH 7.35).
Isolation of human atrial myocytes was carried out by the Wang, et al.'s method (Effects of flecainide, quinidine, and 4-aminopyridine on transient outward and ultrarapid delayed rectifier currents in human atrial myocytes. J Pharmacol Exp Ther 1995, 272: 184-196). Specimens of human right atrial appendage were obtained from the hearts of patients undergoing cardiopulmonary bypass surgery. […]

CN1Cc2c(ccc3c2OCO3)[C@@H]2[C@H]1c1cc3c(cc1C[C@@H]2O)OCO3 [Compound 1, [5bR-(5bα,6β,12bα)]-5b,6,7,12b,13, 14-hexahydro-13-methyl[1,3]benzodioxolo[5,6c]-1,3-dioxolo[4,5-i]phenanthridin-6-ol]
voltage-dependence of block (hKv1.5 channel; between 0 mV and +60 mV): weak voltage-dependence | δ value (Woodhull equation) (hKv1.5 channel; between 0 mV and +60 mV, n=7): 0.16±0.01 | voltage-dependence of block (hKv1.5 channel; between -30 mV and 0 mV): strong voltage-dependence | effect on peak amplitude of outward K+ current ([1]; 10 μM): decreased the peak amplitude | inhibition at 10 µM ([1]; compared to control, n=7, read-out: inhibition of steady-state currents at the end of the depolarizing pulse of +50 mV): 41 ± 5%
